Consider 6 compounds from patent publication US10577367B2, “IRAK4 inhibiting agents” (BIOGEN MA INC., priority 2014, dated 2020).

pIC50: −log10 of the molar value.

Sequence of IRAK4 (Q9NWZ3 whole entry, species assumed): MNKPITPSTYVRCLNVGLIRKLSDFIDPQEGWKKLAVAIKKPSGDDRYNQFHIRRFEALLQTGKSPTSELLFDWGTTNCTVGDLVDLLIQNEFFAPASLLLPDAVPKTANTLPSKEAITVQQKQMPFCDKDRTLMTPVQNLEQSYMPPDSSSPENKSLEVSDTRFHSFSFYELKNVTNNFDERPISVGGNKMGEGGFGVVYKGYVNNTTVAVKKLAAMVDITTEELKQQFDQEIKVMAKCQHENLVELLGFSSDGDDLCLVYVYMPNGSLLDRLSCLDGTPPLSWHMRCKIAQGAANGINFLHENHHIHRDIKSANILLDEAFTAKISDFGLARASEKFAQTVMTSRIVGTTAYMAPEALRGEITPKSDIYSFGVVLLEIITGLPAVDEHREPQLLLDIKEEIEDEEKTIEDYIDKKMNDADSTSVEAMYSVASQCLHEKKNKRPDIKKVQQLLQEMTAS

For this assay, the target named is IRAK4 (Homo sapiens (Human), UniProt Q9NWZ3). Nature of the assay: IRAK-4 AlphaScreen biochemical kinase assay. To be noted: 1 nM IRAK4, 1 mM ATP, 3.5 h at RT. The protocol:
The biochemical assay is in a AlphaScreen format. The kinase reaction is based on the IRAK-4 phosphorylation of a biotin labeled peptide. The phosphopeptide is incubated with anti-phosphothreonine antibody as well as streptavidin- and protein A-coated beads. Binding of the protein-A coated beads to the antibody and the streptavidin beads to the peptide, leads to an energy transfer from one bead to the other, ultimately producing a luminescent/fluorescent signal.
The compounds described herein were tested for in the above biochemical assay.
On the technique in general: Alpha assays give light when donor and acceptor beads are brought close together.
The compound `CCC[C@H](N)c1cccc(-c2cc(N3CCCCC3)c3cnn(-c4cccc(CO)n4)c3c2)n1` [Example 324, (S)-(6-(6-(6-(1-aminobutyl)pyridin-2-yl)-4-(piperidin-1-yl)-1H-indazol-1-yl)pyridin-2-yl)methanol] had a pIC50 of more than 7.00.
The value for `CCCC(N)c1cccc(-c2ccc3cnc(-c4cccc(C)n4)n3c2)n1` (stereo not drawn) [Example 276, 1-(6-(3-(6-methylpyridin-2-yl)imidazo[1,5-a]pyridin-6-yl)pyridin-2-yl)butan-1-amine] was more than 7.00.
The value for `CCC(N)c1cccc(-c2ccc3cnc(-c4cccc(C)n4)n3c2)n1` (stereo not drawn) [Example 275, 1-(6-(3-(6-methylpyridin-2-yl)imidazo[1,5-a]pyridin-6-yl)pyridin-2-yl)propan-1-amine] was more than 7.00; that for `O=C1CCCc2ccc(-c3ccc4cnn(-c5cccc(C(F)(F)F)n5)c4c3)nc21` [Example 212, 2-(1-(6-(trifluoromethyl)pyridin-2-yl)-1H-indazol-6-yl)-6,7-dihydroquinolin-8(5H)-one] was less than 5.00.
In turn, `CCC[C@H](N)c1cccc(-c2cc(C3=CCN(C)CC3)c3cnn(-c4cccc(CO)n4)c3c2)n1` [Example 423, (S)-(6-(6-(6-(1-aminobutyl)pyridin-2-yl)-4-(1-methyl-1,2,3,6-tetrahydropyridin-4-yl)-1H-indazol-1-yl)pyridin-2-yl)methanol] gave a pIC50 of more than 7.00.
Compound `N#Cc1cc(-c2cncc(NC(=O)C(F)(F)F)c2)cc2c1cnn2-c1cccc(C(F)(F)F)n1` [Example 208, N-(5-(4-cyano-1-(6-(trifluoromethyl)pyridin-2-yl)-1H-indazol-6-yl)pyridin-3-yl)-2,2,2-trifluoroacetamide] had a pIC50 of less than 5.00.

By pIC50 is commonly meant the negative decadic logarithm of the IC50, by convention in mol/L. A high value points to a small IC50.
